Reference: PubChem BioAssay (NCI)
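Grown in 96-well plates, cells were treated for 48 hours with each compound at five concentrations. Insufficient inhibition: endpoint recorded as highest concentration tested. GI50 = concentration required for 50% inhibition of growth. Definition used: TGI = concentration required for complete inhibition of growth.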

Columns and labels:
Assay in all cases: DTP human tumour cell line panel, 48 h
786-0 renal = system: 786-0 renal
A498 renal = system: A498 renal
A549 NSCLC = system: A549 NSCLC
ACHN renal = system: ACHN renal
BT-549 breast = system: BT-549 breast
CAKI-1 renal = system: CAKI-1 renal
CCRF-CEM leukemia = system: CCRF-CEM leukemia
COLO 205 colon = system: COLO 205 colon
DU-145 prostate = system: DU-145 prostate
EKVX NSCLC = system: EKVX NSCLC
HCC-2998 colon = system: HCC-2998 colon
HCT-116 colon = system: HCT-116 colon
HCT-15 colon = system: HCT-15 colon
HL-60(TB) leukemia = system: HL-60(TB) leukemia
HOP-62 NSCLC = system: HOP-62 NSCLC
HOP-92 NSCLC = system: HOP-92 NSCLC
HS 578T breast = system: HS 578T breast
HT29 colon = system: HT29 colon
IGROV1 ovarian = system: IGROV1 ovarian
K-562 leukemia = system: K-562 leukemia
KM12 colon = system: KM12 colon
LOX IMVI melanoma = system: LOX IMVI melanoma
M14 melanoma = system: M14 melanoma
MALME-3M melanoma = system: MALME-3M melanoma
MCF7 breast = system: MCF7 breast
MDA-MB-231 breast = system: MDA-MB-231 breast
MDA-MB-435 = system: MDA-MB-435
MOLT-4 leukemia = system: MOLT-4 leukemia
NCI-H226 lung = system: NCI-H226 lung

For `C=C1CCC2C3(C)COC(c4ccc(N(C)C)cc4)OC3CCC2(C)C1C/C=C1/C(=O)OCC1O` (stereo not drawn), the GI50 (786-0 renal) was 10.5 µM, the TGI (786-0 renal) was 25.3 µM and the GI50 (A498 renal) was 6.25 µM. It also gave a TGI (A498 renal) of 17.1 µM, a GI50 (A549 NSCLC) of 4.73 µM and a TGI (A549 NSCLC) of 17.3 µM. For the same molecule, the GI50 (ACHN renal) was 9.16 µM, the TGI (ACHN renal) was 21.4 µM and the GI50 (BT-549 breast) was 2.95 µM. For the same molecule, the TGI (BT-549 breast) was 11.1 µM, the GI50 (CAKI-1 renal) was 2.12 µM and the TGI (CAKI-1 renal) was 5.66 µM. For the same molecule, the GI50 (CCRF-CEM leukemia) was 1.35 µM, the TGI (CCRF-CEM leukemia) was 3.99 µM and the GI50 (COLO 205 colon) was 3.54 µM. For the same molecule, the TGI (COLO 205 colon) was 12.7 µM, the GI50 (DU-145 prostate) was 3.01 µM and the TGI (DU-145 prostate) was 10.4 µM. The GI50 (EKVX NSCLC) was 6.43 µM, the TGI (EKVX NSCLC) was 21.9 µM and the GI50 (HCC-2998 colon) was 7.69 µM. The TGI (HCC-2998 colon) was 19.8 µM, the GI50 (HCT-116 colon) was 1.62 µM and the TGI (HCT-116 colon) was 3.05 µM. The GI50 (HCT-15 colon) was 1.91 µM, the TGI (HCT-15 colon) was 6 µM and the GI50 (HL-60(TB) leukemia) was 1.36 µM. The TGI (HL-60(TB) leukemia) was 3.6 µM, the GI50 (HOP-62 NSCLC) was 18.4 µM and the TGI (HOP-62 NSCLC) was 33.3 µM. For the same molecule, the GI50 (HOP-92 NSCLC) was 6.4 µM, the TGI (HOP-92 NSCLC) was 21.7 µM and the GI50 (HS 578T breast) was 2.13 µM. The TGI (HS 578T breast) was 6.69 µM, the GI50 (HT29 colon) was 2.43 µM and the TGI (HT29 colon) was 6.19 µM. For the same molecule, the GI50 (IGROV1 ovarian) was 2.44 µM, the TGI (IGROV1 ovarian) was 6.02 µM and the GI50 (K-562 leukemia) was 1.22 µM. For the same molecule, the TGI (K-562 leukemia) was 3.37 µM, the GI50 (KM12 colon) was 2.62 µM and the TGI (KM12 colon) was 7.58 µM. It also gave a GI50 (LOX IMVI melanoma) of 1.59 µM, a TGI (LOX IMVI melanoma) of 3.5 µM and a GI50 (M14 melanoma) of 4.1 µM. For the same molecule, the TGI (M14 melanoma) was 16.7 µM, the GI50 (MALME-3M melanoma) was 7.83 µM and the TGI (MALME-3M melanoma) was 22.2 µM. It also gave a GI50 (MCF7 breast) of 2.32 µM, a TGI (MCF7 breast) of 13 µM and a GI50 (MDA-MB-231 breast) of 7.19 µM. It also gave a TGI (MDA-MB-231 breast) of 20.8 µM, a GI50 (MDA-MB-435) of 2.88 µM and a TGI (MDA-MB-435) of 10.5 µM. The GI50 (MOLT-4 leukemia) was 1.97 µM, the TGI (MOLT-4 leukemia) was 5.68 µM and the GI50 (NCI-H226 lung) was 6.09 µM. For the same molecule, the TGI (NCI-H226 lung) was 18.2 µM.
